Counter-ions that a name gives are not always drawn.
Legend:
Format in all cases: in vivo
[1] = tested on: Male rats of the Wistar strain; assay: Despair test (forced swim); conditions: 50 mg/kg IP, injections 24, 5 and 1 hour prior to test, 5-min test, mean ± S.E.M.
[2] = tested on: Male rats of the Wistar strain; assay: Reserpine-induced changes in open field behaviour; conditions: reserpine 0.1 mg/kg SC daily for 14 days, acute 50 mg/kg IP 1 h prior to open field test, 5-min test, mean ± S.E.M.
Method: Rats treated with the compound of Example 1 were compared to either rats treated with the classical antidepressant, clomipramine or controls in the despair test (forced swim). The same groups were also tested for the reserpine-induced changes in open field behaviour.
Male rats of the Wistar strain (purchased from Charles River, Italy) weighing 220-240 g were used throughout all experiments. For at least 1 week prior to the experiment, the rats were housed four to a cage at a constant temperature of 21° C., and under a 12-h light/dark cycle (lights on between 08:00 and 20:00), with food and water available ad libitum.
An acute IP injection of clomipramine hydrochloride (50 mg/kg) or of the compound of Example 1 (0.2 and 0.5 mg/kg) or physiological saline was made in animals subjected to the reserpine-induced changes in the open field test (the injection was made together with the last reserpine administration, e.g. 1 h prior to the open field test).
All animals were gently manipulated by experienced facilities' keepers avoiding any environmental or physical stress. Rats subjected to drugs or physiological saline administration received an injection of a 1-mL standard volume of solution with a 23-gauge stainless steel needle of 31 mm length (for […]) or 21 mm length (for SC injections). The animals were randomly assigned to any treatment group and were used only once in the behavioural experiments.
Reserpine-induced changes in open field behaviour was studied according to the method described in Naunyn-Schmiedeberg's Arch. Pharmacol. 293: 109-114 (Vetulani et al., 1976). Reserpine (Sigma, USA) was dissolved in physiological saline and injected daily for 14 days at the dose of 0.1 mg/kg subcutaneously (SC). A period of 1 hour after the last injection of reserpine, animals were subjected to the open field test. This consisted of the measure of ambulation and rearing of the rat in a circular area divided into 17 equal sections and lighted by a centrally suspended lamp. The areas explored by the rat at least with anterior paws was recorded in 5 min test. The episodes of rearing towards the centre or the walls were also recorded in 5 min test.
All data were analysed using univariate random design analysis of variance (one-way ANOVA) and the post hoc Dunnett's test for multiple comparisons. A P-value of 0.05 or less was considered as indicative of a significant difference.

rats [3] = assay: Elevated plus maze (X-maze) in rats; conditions: 5-min period
Excerpt: The X-maze is constructed from Perspex® and comprises four arms (2 open, 2 closed), each 50 cm long by 9.5 wide and 40 high (closed, arms only) connected by a centre square (9.5×9.5). The open arm has a small lip (3 mm) to assist in the retention of the rat on the arm. The apparatus was housed in a room under subdued lighting conditions.
This model is based on the observation of spontaneous activity of rodents placed in an aversive environment produced by height and often spaces. […] Anxiolytic drugs increase the exploratory activity and the number of entries into the open arms. Rats were allowed at least 1 hour to acclimatise to the environment before testing commenced. Drug treatments were given IP in a pseudo-random, blind design, 40 minutes before behavioural testing, as appropriate. Rats were placed onto the centre square of the X-maze facing a specified open arm, and its behaviour was recorded by remote video over a 5 minute experimental period. The behavioural parameters were subsequently assessed by technicians reviewing the videotape and included: entries into each arm type, time spent on each arm type, rearing, stretch attend postures and head dips.

mouse = assay: Black and white box test (Example 14); conditions: for Parameter 1: Latency L (initial movement from the white to the black area), Mean / Parameter 2: Time spent in White area (TW), Mean: 5-min recording; for Parameter 3: Transitions/5 min (T), Mean: transitions between the two compartments; for Parameter 4: Total Activity: Atot, Mean: white and black compartments
Method: The characteristic action of anxiolytic agents is to cause a redistribution of exploratory activity and time spent in the white section.
Each mouse was placed into the centre of the white, brightly lit area bacldng the opening between the B/W compartments. Animals behaviour was recorded by a remote video camera for 5 minutes. The recordings were subsequently evaluated on the TV by two operators unaware of drug treatment. The following behavioural parameters were recorded: • a) the latency of the initial movement from the white to the black area: L (sec); • b) the time spent in the white area TW (sec); the time spent in the black area is calculated by the difference: […] (sec); • c) the number of transitions between the two compartments T (No./5 min); • d) the total activity in the white and black compartments, Atot (No./5 min); • e) the total activity in the white area throughout the time spent in the white area: • AtotW/TW (No./sec); • f) the total activity in the black area throughout the time spent in the black area: AtotB/TB (No./sec); • g) the total number of exploratory rearings: Rtot (No./5 min); • h) the total number of line crossings: Ctot (No./5 min); • i) the number of exploratory rearings in the white section RW/TW (No./sec); • j) the number of line crossings in the white section CW/TW (No./sec).
Each group was composed by 8 animals.

BKW male albino mice = assay: Black and white box test (Example 10); conditions: 5-min period; for TB = time in white section: signed value
rats [4] = assay: Escape deficit test (learned helplessness), antidepressant activity; conditions: rats treated IP for 15 days, unavoidable stress 16 h and escape test 24 h after last dosing; out of 30 trials; dose not given
Method: The “Escape deficit” test that derives from the classic paradigm of “learned helplessness” was used, as described by Meloni et al. in Pharmacol. Biochem. Behav. 46, 423-6 (1993) and Gambarana et al. in Behav. Pharmacol. 6, 66-73 (1995) and Neuropsychopharmacol. 21, 247-57 (1999). Exposure to an unavoidable stress induces […], which, after 24 hours, makes the rats unable to escape from a nociceptive stimulus. Rats exposed to unavoidable stress make 0-5 escapes out of 30 trials, while naïve rats realise 26-30 escapes. Classical anti-depressives prevent the occurrence of the escape deficit after chronic treatment (15 days).
Rats were treated intra-peritoneally (IP) for 15 days, and then submitted to the unavoidable stress (16 hours after the last dosing) prior to being subjected to the escape test (24 hours after the last dosing).

[5] = IP 40 min before test, dose not given
[6] = 1.25 mg/kg IP 40 min before test
[7] = 0.125 mg/kg IP 40 min before test
[8] = 0.1 mg/kg IP 40 min before test

CN(C)CCCN1c2ccccc2CCc2ccc(Cl)cc21 [Clomipramine, clomipramine hydrochloride, reference compound]
Duration of Immobility [1]: 105.95 ± 9.13
No. of Floor Units (ambulation) [2]: 84.6 ± 8.1
Rearing Episodes [2]: 2.4 ± 0.2

CN1C(=O)CN=C(c2ccccc2)c2cc(Cl)ccc21 [Diazepam]
% time spent in open arms (rats [3]; [5]): 25 ± 5%
No. of entries in open arms (rats [3]; [5]): 4 ± 0.6
Parameter 5: Total Activity in white area: AtotW/TW, Mean (mouse; 1.25 mg/kg): .723 No./sec
Parameter 6: Total Activity in black area: AtotB/TB, Mean (mouse; 1.25 mg/kg): .723 No./sec
Parameter 7: Rtot (total number of exploratory rearings), Mean (mouse; 1.25 mg/kg): 68.750 No./5 min
Parameter 8: Ctot (total number of line crossings), Mean (mouse; 1.25 mg/kg): 144.375 No./5 min
Parameter 9: RW/TW (exploratory rearings in the white section), Mean (mouse; 1.25 mg/kg): .124 No./sec
Parameter 10: CW/TW (line crossings in the white section), Mean (mouse; 1.25 mg/kg): .599 No./sec
Parameter 1: Latency L (initial movement from the white to the black area), Mean (mouse; 1.25 mg/kg): 13.750 s
Parameter 2: Time spent in White area (TW), Mean (mouse; 1.25 mg/kg): 97.750 s
Parameter 3: Transitions/5 min (T), Mean (mouse; 1.25 mg/kg): 13.375 No./5 min
Parameter 4: Total Activity: Atot, Mean (mouse; 1.25 mg/kg): 213.125 No./5 min
Atot = Total exploratory activity (BKW male albino mice; [6]): +46.7
CB/TB = crossings in the white compartment/time in white (BKW male albino mice; [6]): +0.08
CN/TN = crossings in the black compartment/time in black (BKW male albino mice; [6]): +0.1
Ctot = total number of crossings (BKW male albino mice; [6]): +30.7
FI = Initial potency (BKW male albino mice; [6]): +12.7
RB/TB = rearings in the white compartment/time in white (BKW male albino mice; [6]): +0.06
RN/TN = rearings in the black compartment/time in black (BKW male albino mice; [6]): +0.09
Rtot = Total number of rearings (BKW male albino mice; [6]): +21.2
TB = time in white section (BKW male albino mice; [6]): +33.2

ON1CCOCC1c1ccccc1 (centres unmarked) [Example P1, 3-phenylmorpholin-4-ol]
Parameter 5: Total Activity in white area: AtotW/TW, Mean (mouse; 0.1 mg/kg): .608 No./sec
Parameter 6: Total Activity in black area: AtotB/TB, Mean (mouse; 0.1 mg/kg): .652 No./sec
Parameter 7: Rtot (total number of exploratory rearings), Mean (mouse; 0.1 mg/kg): 60.375 No./5 min
Parameter 8: Ctot (total number of line crossings), Mean (mouse; 0.1 mg/kg): 137.000 No./5 min
Parameter 9: RW/TW (exploratory rearings in the white section), Mean (mouse; 0.1 mg/kg): .155 No./sec
Parameter 10: CW/TW (line crossings in the white section), Mean (mouse; 0.1 mg/kg): .454 No./sec
Parameter 1: Latency L (initial movement from the white to the black area), Mean (mouse; 0.1 mg/kg): 20.125 s
Parameter 2: Time spent in White area (TW), Mean (mouse; 0.1 mg/kg): 116.750 s
Parameter 3: Transitions/5 min (T), Mean (mouse; 0.1 mg/kg): 19.500 No./5 min
Parameter 4: Total Activity: Atot, Mean (mouse; 0.1 mg/kg): 197.375 No./5 min

ON1CCOCC1Cc1ccccc1 (centres unmarked) [Example P2, 3-benzylmorpholin-4-ol]
Parameter 5: Total Activity in white area: AtotW/TW, Mean (mouse; 0.1 mg/kg): .519 No./sec
Parameter 6: Total Activity in black area: AtotB/TB, Mean (mouse; 0.1 mg/kg): .571 No./sec
Parameter 7: Rtot (total number of exploratory rearings), Mean (mouse; 0.1 mg/kg): 60.250 No./5 min
Parameter 8: Ctot (total number of line crossings), Mean (mouse; 0.1 mg/kg): 108.375 No./5 min
Parameter 9: RW/TW (exploratory rearings in the white section), Mean (mouse; 0.1 mg/kg): .099 No./sec
Parameter 10: CW/TW (line crossings in the white section), Mean (mouse; 0.1 mg/kg): .420 No./sec
Parameter 1: Latency L (initial movement from the white to the black area), Mean (mouse; 0.1 mg/kg): 19.625 s
Parameter 2: Time spent in White area (TW), Mean (mouse; 0.1 mg/kg): 59.250 s
Parameter 3: Transitions/5 min (T), Mean (mouse; 0.1 mg/kg): 10.000 No./5 min
Parameter 4: Total Activity: Atot, Mean (mouse; 0.1 mg/kg): 168.625 No./5 min

ON1CCCCC1c1ccccc1 (centres unmarked) [Example P5, 2-phenylpiperidin-1-ol]
Parameter 5: Total Activity in white area: AtotW/TW, Mean (mouse; 0.1 mg/kg): .571 No./sec
Parameter 6: Total Activity in black area: AtotB/TB, Mean (mouse; 0.1 mg/kg): .708 No./sec
Parameter 7: Rtot (total number of exploratory rearings), Mean (mouse; 0.1 mg/kg): 69.500 No./5 min
Parameter 8: Ctot (total number of line crossings), Mean (mouse; 0.1 mg/kg): 127.500 No./5 min
Parameter 9: RW/TW (exploratory rearings in the white section), Mean (mouse; 0.1 mg/kg): .123 No./sec
Parameter 10: CW/TW (line crossings in the white section), Mean (mouse; 0.1 mg/kg): .448 No./sec
Parameter 1: Latency L (initial movement from the white to the black area), Mean (mouse; 0.1 mg/kg): 20.625 s
Parameter 2: Time spent in White area (TW), Mean (mouse; 0.1 mg/kg): 105.125 s
Parameter 3: Transitions/5 min (T), Mean (mouse; 0.1 mg/kg): 14.750 No./5 min
Parameter 4: Total Activity: Atot, Mean (mouse; 0.1 mg/kg): 197.000 No./5 min

ON1CCCCC1Cc1ccccc1 (centres unmarked) [Example P6, 2-benzylpiperidin-1-ol]
Parameter 5: Total Activity in white area: AtotW/TW, Mean (mouse; 0.1 mg/kg): .705 No./sec
Parameter 6: Total Activity in black area: AtotB/TB, Mean (mouse; 0.1 mg/kg): .835 No./sec
Parameter 7: Rtot (total number of exploratory rearings), Mean (mouse; 0.1 mg/kg): 75.625 No./5 min
Parameter 8: Ctot (total number of line crossings), Mean (mouse; 0.1 mg/kg): 153.750 No./5 min
Parameter 9: RW/TW (exploratory rearings in the white section), Mean (mouse; 0.1 mg/kg): .190 No./sec
Parameter 10: CW/TW (line crossings in the white section), Mean (mouse; 0.1 mg/kg): .515 No./sec
Parameter 1: Latency L (initial movement from the white to the black area), Mean (mouse; 0.1 mg/kg): 14.500 s
Parameter 2: Time spent in White area (TW), Mean (mouse; 0.1 mg/kg): 152.125 s
Parameter 3: Transitions/5 min (T), Mean (mouse; 0.1 mg/kg): 24.250 No./5 min
Parameter 4: Total Activity: Atot, Mean (mouse; 0.1 mg/kg): 229.375 No./5 min

cis-1,2,3,4,5,6a,7,8,9,10a,10b-dodeca-1,4-oxazino-[3′,4′:2,3]benzo[d]isoxazol-4-one [Comparative Compound A]
% time spent in open arms (rats [3]; [7]): 21 ± 11%
No. of entries in open arms (rats [3]; [7]): 3 ± 1.1
No. of escapes (rats [4]): 3.5 ± 0.9
Atot = Total exploratory activity (BKW male albino mice; [8]): +53.7
CB/TB = crossings in the white compartment/time in white (BKW male albino mice; [8]): +0.01
CN/TN = crossings in the black compartment/time in black (BKW male albino mice; [8]): +0.08
Ctot = total number of crossings (BKW male albino mice; [8]): +19.1
FI = Initial potency (BKW male albino mice; [8]): +8.1
PT = Total passages through the partition (BKW male albino mice; [8]): +4.1
RB/TB = rearings in the white compartment/time in white (BKW male albino mice; [8]): +0.04
RN/TN = rearings in the black compartment/time in black (BKW male albino mice; [8]): +0.13
Rtot = Total number of rearings (BKW male albino mice; [8]): +23.9
TB = time in white section (BKW male albino mice; [8]): +52.1
